One data set has as its target T1, human 11-beta HSD1 (Homo sapiens, UniProt P28845).
T1 construct: made in house; host or cells: E. coli
Put plainly: 11 beta-HSD1 enzyme assay (HTRF cortisol), human recombinant enzyme. The data set is classed as biochemical. Conditions: read-out: Inhibition of human 11-beta HSD1 IC50. In general terms: Time-resolved FRET reads energy transfer from a long-lived donor to a nearby acceptor.

The target in a further data set is mouse 11-beta HSD1 (Mus musculus, UniProt P50172). Put plainly: 11 beta-HSD1 enzyme assay, mice liver microsome fractions.
A further data set addresses rat 11-beta HSD1 (Rattus norvegicus, UniProt P16232). Put plainly: 11 beta-HSD1 enzyme assay, rat liver microsome fractions. It counts as biochemical. The conditions noted are these: read-out: Inhibition of rat 11-beta HSD1 IC50.
The target of a further data set is T2, human 11-beta HSD2 (Homo sapiens, UniProt P80365).
T2 construct: made in house; host or cells: E. coli
T2 sequence (P80365 1-405): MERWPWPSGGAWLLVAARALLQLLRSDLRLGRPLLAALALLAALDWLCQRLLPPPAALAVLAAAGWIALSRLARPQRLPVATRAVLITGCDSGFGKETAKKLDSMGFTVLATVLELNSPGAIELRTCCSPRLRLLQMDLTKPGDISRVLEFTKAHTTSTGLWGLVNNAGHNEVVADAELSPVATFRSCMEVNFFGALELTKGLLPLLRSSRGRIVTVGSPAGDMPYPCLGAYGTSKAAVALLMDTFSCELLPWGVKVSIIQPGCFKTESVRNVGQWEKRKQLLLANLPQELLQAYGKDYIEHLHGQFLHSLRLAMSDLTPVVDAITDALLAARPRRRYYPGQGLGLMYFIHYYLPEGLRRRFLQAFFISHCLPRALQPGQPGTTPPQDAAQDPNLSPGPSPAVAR
The experiment in a line: 11 beta-HSD2 enzyme assay, human recombinant enzyme. It counts as biochemical. The conditions noted are these: selectivity table, Example 10; read-out: Inhibition of human 11-beta HSD2 IC50. An excerpt: This assay was similarly applied to 11beta-HSD2, whereby cortisol, NAD, and carbenoxolon were used as the substrate, cofactor and stopping agent, respectively.

[1] abbreviates: recombinant enzyme from E. coli.

Each structure is given as a SMILES string. Like-named read-outs stand apart in the source and are kept apart here.

Sequence of rat 11-beta HSD1 (P16232 whole entry): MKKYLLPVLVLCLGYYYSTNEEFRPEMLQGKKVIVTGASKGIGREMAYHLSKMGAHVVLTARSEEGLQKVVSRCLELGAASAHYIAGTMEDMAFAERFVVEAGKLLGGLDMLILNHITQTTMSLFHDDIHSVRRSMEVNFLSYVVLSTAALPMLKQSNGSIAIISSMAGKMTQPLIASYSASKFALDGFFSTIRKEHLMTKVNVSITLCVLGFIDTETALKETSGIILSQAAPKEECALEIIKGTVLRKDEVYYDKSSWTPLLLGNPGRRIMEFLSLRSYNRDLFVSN
Sequence of mouse 11-beta HSD1 (P50172 whole entry): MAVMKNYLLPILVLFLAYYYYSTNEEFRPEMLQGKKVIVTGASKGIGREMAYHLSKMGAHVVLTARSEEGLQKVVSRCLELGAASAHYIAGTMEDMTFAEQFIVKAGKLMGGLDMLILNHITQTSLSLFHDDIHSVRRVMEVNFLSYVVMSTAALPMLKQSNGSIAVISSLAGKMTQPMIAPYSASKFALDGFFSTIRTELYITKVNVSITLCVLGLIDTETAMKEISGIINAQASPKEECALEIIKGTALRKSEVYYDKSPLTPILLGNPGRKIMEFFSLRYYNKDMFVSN
T1 sequence (P28845 whole entry): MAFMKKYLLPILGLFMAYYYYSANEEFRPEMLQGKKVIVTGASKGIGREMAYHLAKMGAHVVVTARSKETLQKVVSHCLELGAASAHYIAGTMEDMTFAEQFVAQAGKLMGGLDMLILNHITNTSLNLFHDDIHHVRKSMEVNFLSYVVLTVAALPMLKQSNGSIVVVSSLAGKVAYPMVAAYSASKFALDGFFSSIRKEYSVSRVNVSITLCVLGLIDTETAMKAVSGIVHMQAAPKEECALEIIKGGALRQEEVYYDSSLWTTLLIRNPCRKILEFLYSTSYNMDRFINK
Description for human 11-beta HSD1: (§1) Human recombinant 11 beta-hydroxysteroid dehydrogenase type 1 (11 beta-HSD1) and type 2 (11 beta-HSD2) enzymes were expressed in E. coli. Rat and mice liver microsome fractions were purchased from TEBU.
(§2) The 11 beta-HSD1 enzyme assay was carried out in 96 well microtiter plates in a total volume of 100 μl containing 30 mM HEPES buffer, pH 7,4 with 1 mM EDTA, substrate mixture cortisone/NADPH (200 nM/200 μM), G-6-P (1 mM) and inhibitors in serial dilutions. Reactions were initiated by addition of 10 μl 11beta-HSD1 (3 μg) from E. coli, either as microsome fractions from rat or mice liver (2.5 μg). Following mixing, the plates were shaken for 150 minutes at 37° C. The reactions were terminated with 100 Acid-18beta glycyrrhetinic stop solution. Determinations of cortisol levels in 11 beta-HSD1 preparations were monitored by HTRF (HTRF cortisol assay from C is bio international).
Description for mouse 11-beta HSD1: as §1, §2
Description for rat 11-beta HSD1: as §1, §2

Take `COc1ccc(NC(=O)NC2C3CC4CC(C3)CC2C4)c(C)c1` (centres unmarked) [Ex 1, 1-Adamantan-2-yl-3-(4-methoxy-2-methyl-phenyl)-urea]: the melting point (as a rule, the temperature of the solid-liquid transition) came to 186 °C. For the same compound, the IC50 (commonly the concentration that inhibits the measured activity by half) on human 11-beta HSD1 (setting [1]) stood at 15 nM. Besides, the IC50 on mouse 11-beta HSD1 came out at 97 nM. In addition, on rat 11-beta HSD1, the IC50 is 190 nM.

`O=C(Nc1ccccc1C(F)(F)F)NC1C2CC3CC(C2)CC1C3` (centres unmarked) [Ex 1-3, 1-Adamantan-2-yl-3-(2-trifluoromethyl-phenyl)-urea]: the IC50 on human 11-beta HSD1 (setting [1]) was 340 nM.

Consider `COc1cc(NC(=O)NC2C3CC4CC(C3)CC2C4)cc(OC)c1` (centres unmarked) [Ex 1-7, 1-Adamantan-2-yl-3-(3,5-dimethoxy-phenyl)-urea], for which, on human 11-beta HSD1 (setting [1]), the IC50 turned out to be 270 nM.

For the compound `O=C(NCCc1ccccc1)NC1C2CC3CC(C2)CC1C3` (centres unmarked) [Ex 1-12, 1-Adamantan-2-yl-3-phenethyl-urea], the values for the IC50 on human 11-beta HSD1 (setting [1]), at mouse 11-beta HSD1 and at rat 11-beta HSD1 were 430 nM, 440 nM and 8 nM, respectively.

In the case of `O=C(NCCc1cccs1)NC1C2CC3CC(C2)CC1C3` (centres unmarked) [Ex 1-16, 1-Adamantan-2-yl-3-(2-thiophen-2-yl-ethyl)-urea], the IC50 on human 11-beta HSD1 (setting [1]) amounted to 43 nM.

With `CCc1cccc(NC(=O)NC2C3CC4CC(C3)CC2C4)c1` (centres unmarked) [Ex 1-20, 1-Adamantan-2-yl-3-(3-ethyl-phenyl)-urea], the IC50 at human 11-beta HSD1 (setting [1]) worked out at 67 nM.

For `O=C(Nc1ccc2ccccc2c1)NC1C2CC3CC(C2)CC1C3` (centres unmarked) [Ex 1-23, 1-Adamantan-2-yl-3-naphthalen-2-yl-urea], the IC50 on human 11-beta HSD1 (setting [1]) worked out at 57 nM.

Turning to `O=C(Nc1cc(Cl)nc(Cl)c1)NC1C2CC3CC(C2)CC1C3` (centres unmarked) [Ex 1-26, 1-Adamantan-2-yl-3-(2,6-dichloro-pyridin-4-yl)-urea], on human 11-beta HSD1 (setting [1]), the IC50 came to 670 nM.

On to `Cc1cccc(CNC(=O)NC2C3CC4CC(C3)CC2C4)c1` (centres unmarked) [Ex 1-34, 1-Adamantan-2-yl-3-(3-methyl-benzyl)-urea], for which the IC50 on human 11-beta HSD1 (setting [1]) came out at 740 nM.

As to `O=C(NC1CCCC1)NC1C2CC3CC(C2)CC1C3` (centres unmarked) [Ex 1-39, 1-Adamantan-2-yl-3-cyclopentyl-urea], the IC50 at human 11-beta HSD1 (setting [1]) amounted to 370 nM; against mouse 11-beta HSD1, 355 nM; on rat 11-beta HSD1, 47 nM.

On to `O=C(NCc1ccco1)NC1C2CC3CC(C2)CC1C3` (centres unmarked) [Ex 1-44, 1-Adamantan-2-yl-3-furan-2-ylmethyl-urea], for which the IC50 came out at 2100 nM on human 11-beta HSD1 (setting [1]) and 3440 nM on mouse 11-beta HSD1.

For `C[C@@H](NC(=O)NC1C2CC3CC(C2)CC1C3)c1ccccc1` (stereo partly drawn) [Ex 1-61, 1-Adamantan-2-yl-3-((R)-1-phenyl-ethyl)-urea], at human 11-beta HSD1 (setting [1]), the IC50 was determined as 16 nM.

Consider `O=C(NC1C2CC3CC(C2)CC1C3)N1CCCC1` (centres unmarked) [Ex 3-3, Pyrrolidine-1-carboxylic acid adamantan-2-ylamide], for which the results for the IC50 at human 11-beta HSD1 (setting [1]) and at rat 11-beta HSD1 were 720 nM and 1320 nM, respectively.

As to `Cc1c(NC(=O)NC2C3CC4CC(C3)CC2C4)cccc1C(=O)O` (centres unmarked) [Ex 6, 3-(3-Adamantan-2-yl-ureido)-2-methyl-benzoic acid], at human 11-beta HSD1 (setting [1]), the IC50 is 550 nM.

`Cc1cc(O)ccc1NC(=O)NC1C2CC3CC(C2)CC1C3` (centres unmarked) [Ex 7, 1-Adamantan-2-yl-3-(4-hydroxy-2-methyl-phenyl)-urea] showed a melting point of 212 to 214 °C.

As for `Cc1cc(OCCN2CCCCC2)ccc1NC(=O)NC1C2CC3CC(C2)CC1C3` (centres unmarked) [Ex 8, 1-Adamantan-2-yl-3-(2-methyl-4-(2-piperidin-1-yl-ethoxyl)phenyl)-urea], the IC50 on mouse 11-beta HSD1 (read-out: Inhibition of mouse 11-beta HSD1 IC50, mice liver microsome fractions) was 1240 nM; on rat 11-beta HSD1, 1460 nM.

As for `COc1ccc(NC(=O)NC2C3CC4CC(C3)CC2C4)c(C)c1` (centres unmarked) [drawing 13], the IC50 at human 11-beta HSD1 (selectivity table, Example 10) is 12 nM; at human 11-beta HSD2, greater than 10 µM.

With `O=C(NC1CCCC1)NC1C2CC3CC(C2)CC1C3` (centres unmarked) [drawing 14], the IC50 was 370 nM at human 11-beta HSD1 (selectivity table, Example 10) and greater than 10 µM on human 11-beta HSD2.

On to `C[C@@H](NC(=O)NC1C2CC3CC(C2)CC1C3)c1ccccc1` (some centres unmarked) [drawing 15], for which the IC50 is 16 nM at human 11-beta HSD1 (selectivity table, Example 10) and greater than 10 µM on human 11-beta HSD2.

Values taken from patent publication US8466200B2, “2-adamantylurea derivatives as selective 11β-HSD1 inhibitors” (Merck Patent GmbH, priority 2005, dated 2013).
